Data from patent US20030125387A1 (priority 2000, published 2003).
Values after ≈ are worked out from the molar mass of the structure shown. Like-named read-outs stand apart in the source and are kept apart here. Values belong to the compound of their own block, whether it stands above or below them.

Tests used:
[1] = Studies using 14C labelled benzyl alcohol: dissipation from injection site and removal from body; format: in vivo
[2] = Solubility of fulvestrant in oil based formulations with and without alcohols (Table 4); format: physicochemical; details: 25 °C, oil or lipid
[3] = tested on: hypothalamic ER; details: in vivo; cited from earlier work
[4] = Effect of benzyl benzoate on fulvestrant solubility in castor oil at 25°C (Table 3); format: physicochemical
[5] = in vivo; cited from earlier work
[6] = Solubility of fulvestrant in different solvents at 25° C. (Table 2); format: physicochemical
[7] = tested on: human breast cancer cells; details: human breast cancer cells in vitro; cited from earlier work
[8] = tested on: uterus; details: intact adult rats, cited from earlier work
[9] = tested on: uterotrophic action of oestradiol; details: mice; cited from earlier work
[10] = Aqueous solubility of fulvestrant, estimate from a water/solvent mixture; format: physicochemical; details: estimate from a water/solvent mixture solute
[11] = tested on: uterotrophic action of oestradiol; details: rats; cited from earlier work
[12] = tested on: uterotrophic action of oestradiol; details: monkeys; cited from earlier work

- dissipation from the injection site [1]: dissipates rapidly
- time to removal from the body after administration [1]: ≤ 24 h
SMILES: OCc1ccccc1 [benzyl alcohol]

- solubility [2]: 70.1 mg/mL (≈ 116 mM)
- solubility ([2]; Fulvestrant Solubility, Vehicle minus alcohols, Sesame seed oil based, alcohols removed): 0.7 mg/mL (≈ 1.15 mM)
- solubility ([2]; Fulvestrant Solubility, Vehicle minus alcohols, Sesame seed/Castor oil (1:1) based, alcohols removed, 25° C.): 4.4 mg/mL (≈ 7.25 mM)
- solubility ([2]; Arachis oil based oil formulation, complete vehicle, Fulvestrant Solubility, Arachis oil based, ethanol [96%] (10%), benzyl alcohol (10%), benzyl benzoate (15%), oil to volume): 40.2 mg/mL (≈ 66.3 mM)
- solubility ([2]; Arachis oil based oil formulation, vehicle minus alcohols, Fulvestrant Solubility, Arachis oil based, alcohols removed): < 0.2 mg/mL
- solubility ([2]; Castor oil based oil formulation, complete vehicle, Fulvestrant Solubility, Castor oil based, ethanol [96%] (10%), benzyl alcohol (10%), benzyl benzoate (15%), oil to volume): 81.2 mg/mL (≈ 134 mM)
- solubility ([2]; Castor oil based oil formulation, vehicle minus alcohols, Fulvestrant Solubility, Castor oil based, alcohols removed): 12.6 mg/mL (≈ 20.8 mM)
- solubility ([2]; Miglyol 812-N based oil formulation, complete vehicle, Fulvestrant Solubility, Miglyol 812-N based, ethanol [96%] (10%), benzyl alcohol (10%), benzyl benzoate (15%), oil to volume): 86.8 mg/mL (≈ 143 mM)
- solubility ([2]; Miglyol 812-N based oil formulation, vehicle minus alcohols, Fulvestrant Solubility, Miglyol 812-N based, alcohols removed): 1.7 mg/mL (≈ 2.8 mM)
- solubility ([2]; Sesame seed oil based oil formulation, complete vehicle, Fulvestrant Solubility, Sesame seed oil based, ethanol [96%] (10%), benzyl alcohol (10%), benzyl benzoate (15%), oil to volume): 45.7 mg/mL (≈ 75.3 mM)
- Fulvestrant Solubility ([4]; % w/v: ethanol (96%) 5, benzyl alcohol 5, benzyl benzoate 15, castor oil to 100): 36 mgml^−1
- Fulvestrant Solubility ([4]; % w/v: ethanol (96%) 5, benzyl alcohol 5, no benzyl benzoate, castor oil to 100): 27 mgml^−1
- Fulvestrant Solubility ([4]; % w/v: ethanol (96%) 10, benzyl alcohol 5, benzyl benzoate 15, castor oil to 100): 54 mgml^−1
- Fulvestrant Solubility ([4]; % w/v: ethanol (96%) 10, benzyl alcohol 5, no benzyl benzoate, castor oil to 100): 46 mgml^−1
- Fulvestrant Solubility ([4]; % w/v: ethanol (96%) 10, benzyl alcohol 10, benzyl benzoate 15, castor oil to 100): 65 mgml^−1
- Fulvestrant Solubility ([4]; % w/v: ethanol (96%) 10, benzyl alcohol 10, no benzyl benzoate, castor oil to 100): 45 mgml^−1
- Fulvestrant Solubility ([4]; % w/v: ethanol (96%) 15, benzyl alcohol 15, benzyl benzoate 15, castor oil to 100): 102 mgml^−1
- Fulvestrant Solubility ([4]; % w/v: ethanol (96%) 15, benzyl alcohol 15, no benzyl benzoate, castor oil to 100): 76 mgml^−1
- solubility ([6]; solvent Arachis oil, 25° C.): 0.45 mgml^−1
- solubility ([6]; solvent Benzyl Alcohol, 25° C.): >200 mgml^−1
- solubility ([6]; solvent Benzyl benzoate, 25° C.): 6.15 mgml^−1
- solubility ([6]; solvent Castor oil, 25° C.): 20 mgml^−1
- solubility ([6]; solvent Ethanol, 25° C.): >200 mgml^−1
- solubility ([6]; solvent Ethyl oleate, 25° C.): 1.25 mgml^−1
- solubility ([6]; solvent Isopropyl myristate, 25° C.): 0.80 mgml^−1
- solubility ([6]; solvent Miglyol 810, 25° C.): 3.06 mgml^−1
- solubility ([6]; solvent Miglyol 812, 25° C.): 2.72 mgml^−1
- solubility ([6]; solvent Sesame oil, 25° C.): 0.58 mgml^−1
- solubility ([6]; solvent Span 85 (surfactant), 25° C.): 3.79 mgml^−1
- solubility ([6]; solvent Water, 25° C., read-out: SOLUBILITY): 0.001 mg/mL (≈ 0.00165 mM)
- aqueous solubility [10]: around 10 ngml^−1
SMILES: C[C@]12CC[C@@H]3c4ccc(O)cc4C[C@@H](CCCCCCCCC[S+]([O-])CCCC(F)(F)C(F)(F)F)[C@H]3[C@@H]1CC[C@@H]2O (stereo partly drawn) [fulvestrant, 7α-[9-(4,4,5,5,5-Pentafluoropentylsulphinyl)nonyl]oestra-1,3-5(10)-triene-3,17β-diol]
- block of hypothalamic ER [3]: does not block
- crossing of the blood-brain barrier [5]: does not cross the blood-brain barrier
- block of growth stimulatory action of oestradiol [7]: completely blocks
- potency and effectiveness compared with tamoxifen [7]: more potent and more effective than tamoxifen
- effect on bone density and gonadotrophin secretion ([8]; at the dose achieving maximum regression of the uterus): does not adversely affect bone density or lead to increased gonadotrophin secretion
- regression of the uterus [8]: maximum regression of the uterus
- block of uterotrophic action of oestradiol [9]: blocks completely
- block of uterotrophic action of oestradiol [11]: blocks completely
- block of uterotrophic action of oestradiol [12]: blocks completely
